Measured values from patent US11339171B2, “MDM2 inhibitors” (Gan & Lee Pharmaceuticals, priority 2017, dated 2022).
Values joined by “and” are separate entries in the source; they are usually repeats but may differ in a detail not shown here. Identical values can stand only once. Like-named read-outs stand apart in the source and are kept apart here.

Tests used:
[1] = Pharmacokinetics in ICR mice after intravenous and intragastric administration; type: in vivo; details: for F*: PO 5 mg/kg vs IV 2 mg/kg; for MRT last: read-out: MRT(0-t); for MRT inf: read-out: MRT(0-∞); for Vd: read-out: Vz
Method: Experimental Example 3 Determination of the Pharmacokinetics of the Mdm2 Inhibitors of the Present Invention in Mice
ICR mice were used as the test animals, and the concentrations of the drugs in plasma of mice at different time points after intravenous administration and intragastric administration of the representative compounds were measured by a LC/MS/MS method, so as to study the pharmacokinetic behavior of the compounds of the present invention in mice and evaluate the pharmacokinetic characteristics thereof.
Some compounds prepared in Examples 1-180 of the present invention.
The control drug HDM201 was prepared by the method disclosed in patent No. CN104203952A.
Healthy adult ICR mice, male, 6-9 weeks old, weighing 20-30 g, purchased from Shanghai Xipuer-Bikai Laboratory Animal Co., Ltd., Animal Production License No.: SCXK (HU) 2013-0016
3.2.3 Preparation of Test Drugs
Intragastric or intravenous administration: an appropriate amount of sample was weighed, dissolved in 5% DMSO+40% PEG400+55% (10% HP-β-CD in Saline) to prepare a 0.5 mg/ml solution for intragastric or intravenous administration.
3.2.4 Administration of Test Drugs
Intravenous administration: for each test compound, 3 male ICR mice were administered intravenously at a dose of 2 mg/kg and an administration volume of […] after fasting overnight.
Intragastric administration: for each test compound, 3 male ICR mice were administered intragastrically at a dose of 5 mg/kg and an administration volume of […] after fasting overnight.
3.3 Experimental Operation
The collected plasma was stored at −80° C. before analysis. The plasma sample was analyzed by LC-MS/MS, and the sample was pretreated by protein precipitation method. The linear range of sample analysis was 1 to 2000 ng/ml. The lowest quantification limit was 1 ng/mL. WinNonlin (Pharsight, USA) was used to calculate the following pharmacokinetic parameters: area under the curve AUC(0-t), area under the curve AUC(0-∞), half-life t1/2, retention time MRT(0-∞), blood drug concentration Cmax, time taken to reach the peak blood drug concentration Tmax, bioavailability F, apparent volume of distribution Vz, and clearance rate CL.

[2] = tested on: human osteosarcoma cell line SJSA-1; test: Inhibition of proliferation of human osteosarcoma cell line SJSA-1 (DAPI staining, In Cell Analyzer); details: Homo sapiens, SJSA-1, 72 h, read-out: IC50 (nM), inhibitory activity on proliferation of human osteosarcoma cell line SJSA-1, SJSA-1, incubated 72 h
MDM2 = target: T1, MDM2 (Homo sapiens, UniProt Q00987); test: Inhibition test of MDM2-P53 (GST-MDM2, Biotin-P53, Anti-GST-Tb, SA-XL665); type: binding
T1 construct: made in house
T1 sequence (Q00987 whole entry): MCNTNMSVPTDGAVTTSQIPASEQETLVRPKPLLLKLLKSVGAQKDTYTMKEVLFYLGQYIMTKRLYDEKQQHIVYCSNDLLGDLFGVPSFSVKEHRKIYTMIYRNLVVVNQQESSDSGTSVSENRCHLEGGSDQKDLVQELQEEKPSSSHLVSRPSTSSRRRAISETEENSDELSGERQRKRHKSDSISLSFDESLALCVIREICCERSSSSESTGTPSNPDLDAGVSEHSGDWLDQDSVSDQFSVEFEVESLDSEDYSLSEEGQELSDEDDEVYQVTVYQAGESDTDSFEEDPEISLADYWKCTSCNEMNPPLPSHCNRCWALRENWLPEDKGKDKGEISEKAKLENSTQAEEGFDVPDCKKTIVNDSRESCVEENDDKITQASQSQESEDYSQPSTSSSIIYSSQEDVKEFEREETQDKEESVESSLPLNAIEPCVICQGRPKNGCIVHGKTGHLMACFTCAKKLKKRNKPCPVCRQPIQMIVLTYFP
Method in brief: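 Compounds, serially diluted 5-fold (twelve concentrations), were shaken for 90 min at 25° C with a mix of GST-MDM2 (4 nM final), Biotin-P53, anti-GST-Tb and SA-XL665. Buffer: 1×PBS, 0.1% BSA, 5 mM DTT, 1 mM AEBSF; signal read on a microplate reader.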

[3] = IV 2 mg/kg, ICR mice, individual animal, 2 mg/kg
[4] = PO 5 mg/kg, ICR mice, individual animal, 5 mg/kg
[5] = male, ICR, mouse, plasma, iv, 2 mg/kg, IV 2 mg/kg, ICR mice, Mean
[6] = male, ICR, mouse, plasma, iv, 2 mg/kg, IV 2 mg/kg, ICR mice, Mean, read-out: AUC(0-t)
[7] = male, ICR, mouse, plasma, iv, 2 mg/kg, IV 2 mg/kg, ICR mice, Mean, read-out: Cmax
[8] = male, ICR, mouse, plasma, iv, 2 mg/kg, IV 2 mg/kg, ICR mice, Mean, read-out: Tmax
[9] = male, ICR, mouse, plasma, iv, 2 mg/kg, IV 2 mg/kg, ICR mice, Mean, read-out: t1/2 (converted)
[10] = male, ICR, mouse, plasma, iv, 2 mg/kg, IV 2 mg/kg, ICR mice, individual animal
[11] = male, ICR, mouse, plasma, iv, 2 mg/kg, IV 2 mg/kg, ICR mice, individual animal, read-out: AUC(0-t)
[12] = male, ICR, mouse, plasma, iv, 2 mg/kg, IV 2 mg/kg, ICR mice, individual animal, read-out: Cmax
[13] = male, ICR, mouse, plasma, iv, 2 mg/kg, IV 2 mg/kg, ICR mice, individual animal, read-out: t1/2 (converted)
[14] = male, ICR, mouse, plasma, po, 5 mg/kg, PO 5 mg/kg, ICR mice, Mean
[15] = male, ICR, mouse, plasma, po, 5 mg/kg, PO 5 mg/kg, ICR mice, Mean, read-out: AUC(0-t)
[16] = male, ICR, mouse, plasma, po, 5 mg/kg, PO 5 mg/kg, ICR mice, Mean, read-out: Cmax
[17] = male, ICR, mouse, plasma, po, 5 mg/kg, PO 5 mg/kg, ICR mice, Mean, read-out: Tmax
[18] = male, ICR, mouse, plasma, po, 5 mg/kg, PO 5 mg/kg, ICR mice, Mean, read-out: t1/2 (converted)
[19] = male, ICR, mouse, plasma, po, 5 mg/kg, PO 5 mg/kg, ICR mice, individual animal
[20] = male, ICR, mouse, plasma, po, 5 mg/kg, PO 5 mg/kg, ICR mice, individual animal, read-out: Tmax
[21] = male, ICR, mouse, plasma, po, 5 mg/kg, PO 5 mg/kg, ICR mice, individual animal, read-out: t1/2 (converted)
[22] = male, ICR, mouse, plasma, po, 5 mg/kg, oral intragastric administration 5 mg/kg, read-out: AUC0-t
[23] = male, ICR, mouse, plasma, po, 5 mg/kg, oral intragastric administration 5 mg/kg, read-out: half-life (converted)

In the case of `COc1ncc(-c2nc3c(n2C(C)C)[C@@]2(C(=O)Nc4cc(Cl)ccc42)N(c2cccc(Cl)c2)C3=O)c(OC)n1` [Example S-1, (S)-6-chloro-5′-(3-chlorophenyl)-2′-(2,4-dimethoxypyrimidin-5-yl)-3′-isopropyl-3′H-spiro[dihydroindole-3,4′-pyrrolo[3,4-d]imidazole]-2,6′(5′H)-dione], the “AUC(0-t)” value [1, 3] is reported as 843.53 ng·h/mL and 532.69 ng·h/mL, the “AUC(0-∞)” value [1, 3] is reported as 855.63 ng·h/mL and 548.82 ng·h/mL and the CL [1, 3] is reported as 38.9578 mL/min/kg and 60.7363 mL/min/kg. For the same compound, the Cmax [1, 3] was 336.17 ng/mL and 307.80 ng/mL, the “MRT(0-t)” value [1, 3] was 1.34 h and the “MRT(0-∞)” value [1, 3] was 1.43 h and 1.52 h. The Vz [1, 3] was 3.30882 L/kg and 6.38069 L/kg, the t1/2 [1, 3] was 0.98 h and 1.21 h and the “F*” value ([1]; ICR mice) was 76.30%. The “AUC(0-t)” value [1, 4] was 1822.90 ng·h/mL and 1944.41 ng·h/mL and 241.17 ng·h/mL, the “AUC(0-∞)” value [1, 4] was 1834.25 ng·h/mL and 2088.41 ng·h/mL and 330.15 ng·h/mL and the Cmax [1, 4] was 629.23 ng/mL and 471.21 ng/mL and 92.81 ng/mL. The “MRT(0-t)” value [1, 4] was 2.60 h and 1.79 h, the “MRT(0-∞)” value [1, 4] was 3.17 h and 3.13 h and the t1/2 [1, 4] was 1.98 h and 1.92 h. It also gave an AUC(0-inf) [1, 5] of 714 ng·h/mL, a clearance [1, 5] of 48.3 mL/min/kg and an AUC(0-t) [1, 6] of 700 ng·h/mL. For the same compound, the Cmax [1, 7] was 325 ng/mL, the MRT last [1, 5] was 1.33 h and the MRT inf [1, 5] was 1.45 h. The Tmax [1, 8] was 0.083 h, the Vd [1, 5] was 4.54 L/kg and the half-life [1, 9] was 1.07 h. For the same compound, the AUC(0-inf) [1, 10] was 737 ng·h/mL, the clearance [1, 10] was 45.2 mL/min/kg and the AUC(0-t) [1, 11] was 725 ng·h/mL. For the same compound, the Cmax [1, 12] was 330 ng/mL, the MRT last [1, 10] was 1.31 h and the MRT inf [1, 10] was 1.41 h. It also gave a Tmax ([1]; male, ICR, mouse, plasma, iv, 2 mg/kg, IV 2 mg/kg, ICR mice, individual animal, read-out: Tmax) of 0.08 h, a Vd [1, 10] of 3.92 L/kg and a half-life [1, 13] of 1 h. For the same compound, the AUC(0-inf) [1, 14] was 1420 ng·h/mL, the AUC(0-t) [1, 15] was 1340 ng·h/mL and the Cmax [1, 16] was 398 ng/mL. For the same compound, the MRT last [1, 14] was 2.11 h, the MRT inf [1, 14] was 2.76 h and the Tmax [1, 17] was 1 h. The half-life [1, 18] was 1.64 h, the MRT last [1, 19] was 1.94 h and the MRT inf [1, 19] was 1.99 h. It also gave a Tmax [1, 20] of 1 h, a half-life [1, 21] of 1.03 h and an AUC(0-t) [1, 22] of 1340 ng·h/mL. It also gave a half-life [1, 23] of 1.64 h, an IC50 [2] of 39.6 nM and an IC50 (MDM2) of 2.21 nM.
For `COc1ncc(-c2nc3c(n2C(C)C)[C@@]2(C(=O)Nc4cc(Cl)ccc42)N(c2cc(Cl)ccc2C)C3=O)c(OC)n1` [Example S-2, (S)-6-chloro-5′-(5-chloro-2-methylphenyl)-2′-(2,4-dimethoxypyrimidin-5-yl)-3′-isopropyl-3′H-spiro[dihydroindole-3,4′-pyrrolo[3,4-d]imidazole]-2,6′(5′H)-dione], the “AUC(0-t)” value [1, 3] was 1477.86 ng·h/mL and 1362.57 ng·h/mL, the “AUC(0-∞)” value [1, 3] was 1494.93 ng·h/mL and 1392.31 ng·h/mL and the CL [1, 3] was 22.2977 mL/min/kg and 23.941 mL/min/kg. For the same compound, the Cmax [1, 3] was 456.11 ng/mL and 492.38 ng/mL, the “MRT(0-t)” value [1, 3] was 1.51 h and the “MRT(0-∞)” value [1, 3] was 1.54 h and 1.64 h. For the same compound, the Tmax [1, 3] was 0.50 h and 1.00 h and 0.08 h, the Vz [1, 3] was 1.80436 L/kg and 2.29183 L/kg and the t1/2 [1, 3] was 0.93 h and 1.11 h. For the same compound, the “F*” value ([1]; ICR mice) was 101.81%, the “AUC(0-t)” value [1, 4] was 3883.23 ng·h/mL and 4136.52 ng·h/mL and the “AUC(0-∞)” value [1, 4] was 4100.77 ng·h/mL and 4259.08 ng·h/mL. The Cmax [1, 4] was 729.77 ng/mL and 804.59 ng/mL, the “MRT(0-t)” value [1, 4] was 2.87 h and 2.76 h and the “MRT(0-∞)” value [1, 4] was 3.28 h and 2.97 h. For the same compound, the Tmax [1, 4] was 1.00 h, the t1/2 [1, 4] was 1.83 h and 1.50 h and the AUC(0-inf) [1, 5] was 1480 ng·h/mL. It also gave a clearance [1, 5] of 22.5 mL/min/kg, an AUC(0-t) [1, 6] of 1460 ng·h/mL and a Cmax [1, 7] of 475 ng/mL. The MRT last [1, 5] was 1.48 h, the MRT inf [1, 5] was 1.56 h and the Tmax [1, 8] was 0.528 h. For the same compound, the Vd [1, 5] was 1.88 L/kg, the half-life [1, 9] was 0.96 h and the AUC(0-inf) [1, 10] was 1560 ng·h/mL. It also gave a clearance [1, 10] of 21.3 mL/min/kg, an AUC(0-t) [1, 11] of 1550 ng·h/mL and a Cmax [1, 12] of 477 ng/mL. It also gave an MRT last [1, 10] of 1.47 h, an MRT inf [1, 10] of 1.51 h and a Vd [1, 10] of 1.55 L/kg. It also gave a half-life [1, 13] of 0.84 h, an AUC(0-inf) [1, 14] of 3870 ng·h/mL and an AUC(0-t) [1, 15] of 3730 ng·h/mL. It also gave a Cmax [1, 16] of 730 ng/mL, an MRT last [1, 14] of 2.84 h and an MRT inf [1, 14] of 3.12 h. It also gave a Tmax [1, 17] of 1.67 h, a half-life [1, 18] of 1.59 h and an AUC(0-inf) [1, 19] of 3250 ng·h/mL. It also gave an AUC(0-t) ([1]; male, ICR, mouse, plasma, po, 5 mg/kg, PO 5 mg/kg, ICR mice, individual animal, read-out: AUC(0-t)) of 3170 ng·h/mL, a Cmax ([1]; male, ICR, mouse, plasma, po, 5 mg/kg, PO 5 mg/kg, ICR mice, individual animal, read-out: Cmax) of 656 ng/mL and an MRT last [1, 19] of 2.89 h. For the same compound, the MRT inf [1, 19] was 3.09 h, the Tmax [1, 20] was 2 h and the half-life [1, 21] was 1.45 h. It also gave an AUC(0-t) [1, 22] of 3730 ng·h/mL, a half-life [1, 23] of 1.59 h and a bioavailability ([1]; male, ICR, mouse, plasma, oral intragastric administration 5 mg/kg, read-out: bioavailability) of 102%. The IC50 [2] was 7.4 nM and the IC50 (MDM2) was 1.13 nM.
